Calls of active or inactive are those of the source. No cut-off for these calls is given here.
Key:
Beta-secretase 1 = Beta-secretase 1 (Homo sapiens, UniProt P56817); assay: Inhibition of human BACE1 using as 7-Methoxycoumarin-4-acetyl-[Asn670, Leu671]-Amyloid beta/A4 precursor protein 770 fragment 667-676-(2,4-dinitrophenyl) Lys-Arg-Arg amide trifluoroacetate salt as substrate incubated for 2 hrs by FRET based florescence assay
Cholinesterase = Cholinesterase (Homo sapiens, UniProt P06276); assay: Inhibition of human serum butyrylcholinesterase using BTCI as substrate pre-incubated for 10 mins followed by substrate addition and measured for 6 mins by Ellman's method
Chain of Cholinesterase (P06276 whole entry): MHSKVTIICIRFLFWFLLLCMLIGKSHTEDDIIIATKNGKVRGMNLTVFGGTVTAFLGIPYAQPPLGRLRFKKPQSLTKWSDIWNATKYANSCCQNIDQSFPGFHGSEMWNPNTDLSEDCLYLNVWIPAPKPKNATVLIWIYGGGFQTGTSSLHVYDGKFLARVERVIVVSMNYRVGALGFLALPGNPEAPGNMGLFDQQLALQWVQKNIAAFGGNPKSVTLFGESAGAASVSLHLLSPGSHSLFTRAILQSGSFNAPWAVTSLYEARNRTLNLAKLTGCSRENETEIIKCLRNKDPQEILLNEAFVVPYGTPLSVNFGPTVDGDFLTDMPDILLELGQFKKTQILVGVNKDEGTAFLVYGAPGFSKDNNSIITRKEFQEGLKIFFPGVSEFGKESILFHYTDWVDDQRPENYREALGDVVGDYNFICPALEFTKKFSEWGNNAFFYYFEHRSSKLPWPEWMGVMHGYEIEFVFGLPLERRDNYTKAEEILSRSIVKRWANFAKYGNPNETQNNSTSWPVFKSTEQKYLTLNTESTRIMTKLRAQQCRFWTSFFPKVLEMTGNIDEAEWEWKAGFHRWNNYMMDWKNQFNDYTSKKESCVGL

Acetylcholinesterase [1] = molecular target: T1, Acetylcholinesterase (Homo sapiens, UniProt P22303); assay: Inhibition of human erythrocyte acetylcholinesterase using acetylthiocholine iodide as substrate pre-incubated for 10 mins followed by substrate addition and measured for 6 mins by Ellman's method
T1 sequence (P22303 whole entry): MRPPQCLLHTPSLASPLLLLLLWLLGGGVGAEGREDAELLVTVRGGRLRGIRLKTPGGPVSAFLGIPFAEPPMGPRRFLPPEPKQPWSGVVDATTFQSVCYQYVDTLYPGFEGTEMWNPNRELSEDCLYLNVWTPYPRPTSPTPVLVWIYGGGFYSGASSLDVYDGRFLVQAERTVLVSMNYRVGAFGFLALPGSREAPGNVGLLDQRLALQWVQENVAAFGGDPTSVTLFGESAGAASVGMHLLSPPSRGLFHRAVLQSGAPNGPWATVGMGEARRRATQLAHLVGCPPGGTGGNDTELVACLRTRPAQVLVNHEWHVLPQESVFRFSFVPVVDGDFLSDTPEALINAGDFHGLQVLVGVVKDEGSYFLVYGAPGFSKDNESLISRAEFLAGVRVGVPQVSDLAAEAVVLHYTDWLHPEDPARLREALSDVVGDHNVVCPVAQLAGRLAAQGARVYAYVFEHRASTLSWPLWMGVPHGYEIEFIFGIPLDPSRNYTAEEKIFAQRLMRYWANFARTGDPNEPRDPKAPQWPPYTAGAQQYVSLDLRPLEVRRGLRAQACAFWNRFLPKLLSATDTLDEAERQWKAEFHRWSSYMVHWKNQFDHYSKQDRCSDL

[2] = Permeability of the compound at 25 ug/ml after 18 hrs by PAMPA-BBB assay
[3] = Acute toxicity in Wistar rat assessed as induction of abnormal reactions at 100 to 500 mg/kg, po measured up to 14 days; type: organism-based; details: in vivo, 336 h
Rattus norvegicus [4] = assay: Antioxidant activity Wistar rat model of scopolamine-induced amnesia assessed as reduction in MDA levels in brain homogenates at 10 mg/kg, po by TBARS assay; type: functional, organism-based
Rattus norvegicus [5] = assay: Effect on total arm entries in scopolamine-induced spatial memory impairment in Wistar rat model of amnesia at 10 mg/kg, po administered once daily for 1 week followed by scopolamine challenge 30 mins prior to test by Y-maze test relative to control; type: functional, organism-based
[6] = Cytotoxicity against human SH-SY5Y cells assessed as cell viability at 10 to 80 uM after 48 hrs by MTT assay relative to control; type: cell-based; details: read-out: Activity
Rattus norvegicus [7] = assay: In-vivo inhibition of scopolamine-induced acetylcholinesterase activity in Wistar rat brain homogenates using acetylthiocholine iodide as substrate at 10 mg/kg, po and measured for 6 mins by Ellman's method; type: functional, organism-based
Rattus norvegicus [8] = assay: Reversal of scopolamine-induced spatial memory impairment in Wistar rat model of amnesia assessed as decrease in time spent on open arms at 2.5 to 10 mg/kg, po administered once daily for 1 week followed by scopolamine challenge 30 mins prior to test by elevated plus maze test; type: functional, organism-based
Rattus norvegicus [9] = assay: Antioxidant activity Wistar rat model of scopolamine-induced amnesia assessed as increase in SOD levels in brain homogenates at 10 mg/kg, po by NBT dye based assay; type: functional, organism-based
Rattus norvegicus [10] = assay: Reversal of scopolamine-induced spatial memory impairment in Wistar rat model of amnesia assessed as decrease in transfer latency at 2.5 to 10 mg/kg, po administered once daily for 1 week followed by scopolamine challenge 30 mins prior to test by elevated plus maze test; type: functional, organism-based
[11] = Acute toxicity in Wistar rat at 100 to 500 mg/kg, po measured up to 14 days; type: organism-based; details: in vivo, 336 h
Acetylcholinesterase [12] = molecular target: T1, Acetylcholinesterase; assay: Non-competitive inhibition of human erythrocyte AChE using acetylthiocholine iodide as substrate preincubated for 10 mins followed by substrate addition and measured for 6 mins by Dixon plot analysis
[13] = Cmax in Wistar rat at 10 mg/kg, po measured up to 0 to 72 hrs; type: ADME, organism-based; set-up: dose 10 mg/kg, route oral; details: in vivo
[14] = Tmax in Wistar rat at 10 mg/kg, po measured up to 0 to 72 hrs; type: ADME, organism-based; details: in vivo
Rattus norvegicus [15] = assay: Reversal of scopolamine-induced spatial memory impairment in Wistar rat model of amnesia assessed as increase in spontaneous alteration at 10 mg/kg, po administered once daily for 1 week followed by scopolamine challenge 30 mins prior to test by Y-maze test relative to control; type: functional, organism-based
Rattus norvegicus [16] = assay: Cognitive enhancing effect in Wistar rat model of amyloid beta (1 to 42) oligomer-induced memory impairment model assessed as increase in number of platform crossings at 10 mg/kg, po for 9 days by Morris water maze test; type: functional, organism-based
[17] = molecular target: Amyloid-beta precursor protein (Homo sapiens) (UniProt P05067); assay: Inhibition of amyloid beta 1 to 42 (unknown origin) aggregation assessed as oligomer height at 10 uM incubated for 7 days by AFM analysis
Chain of Amyloid-beta precursor protein (Homo sapiens) (P05067 whole entry): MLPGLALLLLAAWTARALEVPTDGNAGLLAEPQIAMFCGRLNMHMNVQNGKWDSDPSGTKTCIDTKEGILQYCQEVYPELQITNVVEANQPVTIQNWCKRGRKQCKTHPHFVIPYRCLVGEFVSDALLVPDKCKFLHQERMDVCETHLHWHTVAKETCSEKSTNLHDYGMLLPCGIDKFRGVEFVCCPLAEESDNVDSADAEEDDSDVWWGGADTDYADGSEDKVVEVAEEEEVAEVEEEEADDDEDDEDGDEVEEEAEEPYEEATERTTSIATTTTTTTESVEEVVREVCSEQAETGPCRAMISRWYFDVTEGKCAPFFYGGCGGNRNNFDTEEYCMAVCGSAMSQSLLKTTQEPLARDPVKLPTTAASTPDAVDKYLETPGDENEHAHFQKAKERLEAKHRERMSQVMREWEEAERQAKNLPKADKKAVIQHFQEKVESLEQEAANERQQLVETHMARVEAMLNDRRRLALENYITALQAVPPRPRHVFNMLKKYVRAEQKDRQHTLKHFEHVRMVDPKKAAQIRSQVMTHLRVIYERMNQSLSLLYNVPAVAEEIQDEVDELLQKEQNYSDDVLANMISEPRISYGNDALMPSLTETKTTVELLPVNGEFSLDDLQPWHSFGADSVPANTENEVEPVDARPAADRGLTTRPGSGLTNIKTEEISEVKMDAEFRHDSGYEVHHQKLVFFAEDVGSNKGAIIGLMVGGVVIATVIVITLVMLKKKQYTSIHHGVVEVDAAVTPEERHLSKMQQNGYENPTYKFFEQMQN

Rattus norvegicus [18] = assay: Cognitive enhancing effect in Wistar rat model of amyloid beta (1 to 42) oligomer-induced memory impairment model assessed as escape latency time at 5 mg/kg, po for 9 days by Morris water maze test (reference value: 49.3 to 74 secs); type: functional
[19] = AUC (0 to 24 hrs) in Wistar rat at 10 mg/kg, po; type: ADME, organism-based; set-up: dose 10 mg/kg, time < 24 hr, route oral; details: in vivo
[20] = Elimination half life in Wistar rat at 10 mg/kg, po measured up to 0 to 72 hrs; type: ADME, organism-based; details: in vivo, read-out: beta t1/2 (converted)
Rattus norvegicus [21] = assay: Cognitive enhancing effect in Wistar rat model of amyloid beta (1 to 42) oligomer-induced memory impairment model assessed as escape latency time at 10 mg/kg, po for 9 days by Morris water maze test (reference value: 49.3 to 74 secs); type: functional, organism-based
[22] = molecular target: Amyloid-beta precursor protein (Homo sapiens) (UniProt P05067); assay: Inhibition of amyloid beta 1 to 42 (unknown origin) aggregation assessed as roughness index at 10 uM incubated for 7 days by AFM analysis
[23] = MRT in Wistar rat at 10 mg/kg, po measured up to 0 to 72 hrs; type: ADME, organism-based; details: in vivo
Acetylcholinesterase [24] = molecular target: T1, Acetylcholinesterase; assay: Non-competitive inhibition of human erythrocyte AChE using acetylthiocholine iodide as substrate preincubated for 10 mins followed by substrate addition and measured for 6 mins by Lineweaver-Burk plot analysis

Chain of Beta-secretase 1 (P56817 whole entry, the tested form may be a part): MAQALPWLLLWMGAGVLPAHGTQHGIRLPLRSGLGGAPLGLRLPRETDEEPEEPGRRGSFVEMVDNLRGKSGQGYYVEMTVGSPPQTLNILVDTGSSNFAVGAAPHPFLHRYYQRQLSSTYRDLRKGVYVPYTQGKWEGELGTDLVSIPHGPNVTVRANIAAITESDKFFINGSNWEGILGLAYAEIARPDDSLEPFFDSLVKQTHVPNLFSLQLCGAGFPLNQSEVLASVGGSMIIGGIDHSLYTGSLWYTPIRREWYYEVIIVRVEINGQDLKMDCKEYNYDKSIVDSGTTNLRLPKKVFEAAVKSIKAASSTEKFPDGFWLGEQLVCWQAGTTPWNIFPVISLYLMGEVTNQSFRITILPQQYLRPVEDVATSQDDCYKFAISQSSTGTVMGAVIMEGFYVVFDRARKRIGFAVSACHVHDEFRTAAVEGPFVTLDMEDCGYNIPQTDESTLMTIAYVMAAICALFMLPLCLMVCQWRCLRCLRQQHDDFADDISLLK

COc1cccc(/C=N/C2CCN(Cc3ccccc3)CC2)c1OC
IC50 (Beta-secretase 1): 6.3 µM
IC50 (Cholinesterase): > 30 µM
IC50 (Acetylcholinesterase [1]): > 15 µM

Oc1ccc(/C=N/C2CCN(Cc3ccccc3)CC2)c(O)c1
IC50 (Beta-secretase 1): 10 µM
IC50 (Cholinesterase): 19 µM
IC50 (Acetylcholinesterase [1]): 2.6 µM

Oc1ccccc1/C=N/C1CCN(Cc2ccccc2)CC1
IC50 (Beta-secretase 1): 2.7 µM
IC50 (Cholinesterase): 16 µM
IC50 (Acetylcholinesterase [1]): 2.8 µM

O=[N+]([O-])c1ccc(/C=N/C2CCN(Cc3ccccc3)CC2)cc1
IC50 (Beta-secretase 1): 0.73 µM
IC50 (Cholinesterase): 7.3 µM
IC50 (Acetylcholinesterase [1]): 0.9 µM
Papp at 18 h, 25 ug/ml [2]: 4.99 ×10⁻⁶ cm/s

Oc1ccc(CNC2CCN(Cc3ccccc3)CC2)cc1
IC50 (Beta-secretase 1): 9.9 µM
IC50 (Cholinesterase): > 30 µM
IC50 (Acetylcholinesterase [1]): 4 µM

Fc1ccc(/C=N/C2CCN(Cc3ccccc3)CC2)c(F)c1
IC50 (Beta-secretase 1): 3.5 µM
IC50 (Cholinesterase): > 30 µM
IC50 (Acetylcholinesterase [1]): 1.3 µM

Fc1ccc(CNC2CCN(Cc3ccccc3)CC2)c(F)c1
IC50 (Beta-secretase 1): 2.9 µM
IC50 (Cholinesterase): 3.1 µM
IC50 (Acetylcholinesterase [1]): 0.71 µM

FC(F)(F)Oc1ccc(CNC2CCN(Cc3ccccc3)CC2)cc1
IC50 (Beta-secretase 1): 1.4 µM
IC50 (Cholinesterase): 3.5 µM
IC50 (Acetylcholinesterase [1]): 0.59 µM

Cc1cccc(CNC2CCN(Cc3ccccc3)CC2)c1
IC50 (Beta-secretase 1): 2.6 µM
IC50 (Cholinesterase): > 30 µM
IC50 (Acetylcholinesterase [1]): 4.1 µM

Cc1ccc(CNC2CCN(Cc3ccccc3)CC2)cc1
IC50 (Beta-secretase 1): 17 µM
IC50 (Cholinesterase): > 30 µM
IC50 (Acetylcholinesterase [1]): 3.7 µM

c1ccc(CNC2CCN(Cc3ccccc3)CC2)cc1
IC50 (Beta-secretase 1): 2.9 µM
IC50 (Cholinesterase): 12 µM
IC50 (Acetylcholinesterase [1]): 1.7 µM

Cc1ccc(/C=N/C2CCN(Cc3ccccc3)CC2)cc1
IC50 (Beta-secretase 1): 19 µM
IC50 (Cholinesterase): > 30 µM
IC50 (Acetylcholinesterase [1]): 4.4 µM

C(=N\C1CCN(Cc2ccccc2)CC1)/c1ccccc1
IC50 (Beta-secretase 1): 3.4 µM
IC50 (Cholinesterase): > 30 µM
IC50 (Acetylcholinesterase [1]): 2.1 µM

Oc1ccc(/C=N/C2CCN(Cc3ccccc3)CC2)cc1
IC50 (Beta-secretase 1): 12 µM
IC50 (Cholinesterase): > 30 µM
IC50 (Acetylcholinesterase [1]): 4.8 µM

Oc1ccc(CNC2CCN(Cc3ccccc3)CC2)c(O)c1
IC50 (Beta-secretase 1): 5.9 µM
IC50 (Cholinesterase): 18 µM
IC50 (Acetylcholinesterase [1]): 2.3 µM

FC(F)(F)Oc1ccc(/C=N/C2CCN(Cc3ccccc3)CC2)cc1
IC50 (Beta-secretase 1): 1.8 µM
IC50 (Cholinesterase): 5.5 µM
IC50 (Acetylcholinesterase [1]): 1 µM

Fc1ccc(CNC2CCN(Cc3ccccc3)CC2)cc1
IC50 (Beta-secretase 1): 0.55 µM
IC50 (Cholinesterase): 3.9 µM
IC50 (Acetylcholinesterase [1]): 1.2 µM

Fc1ccc(/C=N/C2CCN(Cc3ccccc3)CC2)cc1
IC50 (Beta-secretase 1): 1.5 µM
IC50 (Cholinesterase): > 30 µM
IC50 (Acetylcholinesterase [1]): 2.9 µM

Clc1ccc(CNC2CCN(Cc3ccccc3)CC2)c(Cl)c1
IC50 (Beta-secretase 1): 3 µM
IC50 (Cholinesterase): 3.5 µM
IC50 (Acetylcholinesterase [1]): 0.62 µM

O=[N+]([O-])c1ccc(CNC2CCN(Cc3ccccc3)CC2)cc1
Activity [3]: Non-Toxic
IC50 (Beta-secretase 1): 0.43 µM
IC50 (Cholinesterase): 7.8 µM
Activity (Rattus norvegicus [4]): Active
Activity (Rattus norvegicus [5]): inactive
viability at 48 h, up to 80 µM [6]: 76.3 to 96.3%
inhibition (Rattus norvegicus [7]): Active
Activity (Rattus norvegicus [8]): Active
IC50 (Acetylcholinesterase [1]): 0.72 µM
Activity (Rattus norvegicus [9]): Active
Papp at 18 h, 25 ug/ml [2]: 4.41 ×10⁻⁶ cm/s
Activity (Rattus norvegicus [10]): Active
Activity [11]: Non-Toxic

Oc1ccccc1CNC1CCN(Cc2ccccc2)CC1
IC50 (Beta-secretase 1): 2 µM
IC50 (Cholinesterase): 14 µM
IC50 (Acetylcholinesterase [1]): 2.4 µM

FC(F)(F)c1ccc(CNC2CCN(Cc3ccccc3)CC2)cc1
Activity [3]: Non-Toxic
Ki (Acetylcholinesterase [12]): 0.1 µM
Cmax [13]: 32.8 ng/mL
IC50 (Beta-secretase 1): 0.22 µM
Tmax [14]: 5.3 h
Activity (Rattus norvegicus [15]): Active
Activity (Rattus norvegicus [16]): Active
IC50 (Cholinesterase): 3 µM
Activity (Rattus norvegicus [4]): Active
Activity [17]: 44.5 to 104 nm
Activity (Rattus norvegicus [5]): inactive
viability at 48 h, up to 80 µM [6]: 84.6 to 99.2%
Time (Rattus norvegicus [18]): 20.3 to 74.5 s
AUC(0-t) at 24 h [19]: 633 ng·h/mL
inhibition (Rattus norvegicus [7]): Active
Activity (Rattus norvegicus [8]): Active
IC50 (Acetylcholinesterase [1]): 0.11 µM
half-life [20]: 29.2 h
Activity (Rattus norvegicus [9]): Active
Activity (Rattus norvegicus [21]): Active
Activity [22]: 1.7 to 4.4 nm
MRT [23]: 45.7 h
Papp at 18 h, 25 ug/ml [2]: 6.09 ×10⁻⁶ cm/s
inhibition (Acetylcholinesterase [24]): Active
Activity (Rattus norvegicus [10]): Active
Activity [11]: Non-Toxic

COc1cc(CNC2CCN(Cc3ccccc3)CC2)cc(OC)c1OC
IC50 (Beta-secretase 1): 13 µM
IC50 (Cholinesterase): 11 µM
IC50 (Acetylcholinesterase [1]): 2.2 µM

COc1cc2c(cc1OC)C(=O)C(CC1CCN(Cc3ccccc3)CC1)C2 (stereo unspecified) [DONEPEZIL]
Time (Rattus norvegicus [18]): 22.5 to 72.5 s

Clc1ccc(/C=N/C2CCN(Cc3ccccc3)CC2)c(Cl)c1
IC50 (Beta-secretase 1): 3.9 µM
IC50 (Cholinesterase): 5.8 µM
IC50 (Acetylcholinesterase [1]): 1.3 µM

Clc1ccc(CNC2CCN(Cc3ccccc3)CC2)cc1
IC50 (Beta-secretase 1): 0.66 µM
IC50 (Cholinesterase): 4 µM
IC50 (Acetylcholinesterase [1]): 0.85 µM

Clc1ccc(/C=N/C2CCN(Cc3ccccc3)CC2)cc1
IC50 (Beta-secretase 1): 1.7 µM
IC50 (Cholinesterase): 4.6 µM
IC50 (Acetylcholinesterase [1]): 1.5 µM

COc1cccc(CNC2CCN(Cc3ccccc3)CC2)c1OC
IC50 (Beta-secretase 1): 5.3 µM
IC50 (Cholinesterase): 7.2 µM
IC50 (Acetylcholinesterase [1]): 2.2 µM

FC(F)(F)c1ccc(/C=N/C2CCN(Cc3ccccc3)CC2)cc1
IC50 (Beta-secretase 1): 0.28 µM
IC50 (Cholinesterase): 3.9 µM
IC50 (Acetylcholinesterase [1]): 0.44 µM
Papp at 18 h, 25 ug/ml [2]: 6.24 ×10⁻⁶ cm/s

COc1cc(/C=N/C2CCN(Cc3ccccc3)CC2)cc(OC)c1OC
IC50 (Beta-secretase 1): 14 µM
IC50 (Cholinesterase): 11 µM
IC50 (Acetylcholinesterase [1]): > 15 µM

Cc1cccc(/C=N/C2CCN(Cc3ccccc3)CC2)c1
IC50 (Beta-secretase 1): 3.3 µM
IC50 (Cholinesterase): > 30 µM
IC50 (Acetylcholinesterase [1]): > 15 µM

Source: ChEMBL document CHEMBL4433202, “Design and development of multitarget-directed N-Benzylpiperidine analogs as potential candidates for the treatment of Alzheimer's disease” (Eur J Med Chem, 2019)
